Results: ChEMBL document CHEMBL5107967, “Targeting EZH2 for cancer therapy: From current progress to novel strategies” (Eur J Med Chem, 2022)
In brackets after ≈: the same amount, converted by molar mass.

Assays:
K562 = experiment: Antiproliferative activity against human K562 cells assessed as inhibition of cell proliferation incubated for 48 hrs by MTT assay; format: functional, cell-based; conditions: K562, 48 h
[1] = biological target: T1, Histone-lysine N-methyltransferase EZH2 (Homo sapiens, UniProt Q15910); experiment: Displacement of [3H-SAM] from EZH2 in PRC2 complex (unknown origin) incubated for 1 hr by […] assay
Homo sapiens = species on record: Homo sapiens; experiment: Selectivity ratio of IC50 for EZH1 (unknown origin) to IC50 for EZH2 (unknown origin)
[2] = Inhibition of N-terminal 6xHis SUMO-tagged human EED expressed in Escherichia coli BL21 (DE3)/FITC-labeled EZH2 (39 to 63 residues)(unknown origin) interaction incubated for 2 hrs by fluorescence polarization based competitive assay
[3] = Solubility of the compound in water; format: physicochemical
[4] = biological target: T1, Histone-lysine N-methyltransferase EZH2; experiment: Inhibition of wild-type EZH2 in PRC2 complex (unknown origin) using monomethylated H3K27 as substrate by radiometric assay
[5] = Binding affinity to PRC2 (unknown origin) assessed as inhibition constant; design: species or system Homo sapiens
PC-3 = experiment: Antiproliferative activity against human PC-3 cells assessed as inhibition of cell proliferation incubated for 3 to 7 days followed by replacement of medium containing compound every 3 days by CCK8 assay; format: functional, cell-based
SK-OV-3 = experiment: Antiproliferative activity against human SK-OV-3 cells assessed as inhibition of cell proliferation incubated for 3 to 7 days followed by replacement of medium containing compound every 3 days by CCK8 assay; format: functional, cell-based

T1 sequence (Q15910 whole entry): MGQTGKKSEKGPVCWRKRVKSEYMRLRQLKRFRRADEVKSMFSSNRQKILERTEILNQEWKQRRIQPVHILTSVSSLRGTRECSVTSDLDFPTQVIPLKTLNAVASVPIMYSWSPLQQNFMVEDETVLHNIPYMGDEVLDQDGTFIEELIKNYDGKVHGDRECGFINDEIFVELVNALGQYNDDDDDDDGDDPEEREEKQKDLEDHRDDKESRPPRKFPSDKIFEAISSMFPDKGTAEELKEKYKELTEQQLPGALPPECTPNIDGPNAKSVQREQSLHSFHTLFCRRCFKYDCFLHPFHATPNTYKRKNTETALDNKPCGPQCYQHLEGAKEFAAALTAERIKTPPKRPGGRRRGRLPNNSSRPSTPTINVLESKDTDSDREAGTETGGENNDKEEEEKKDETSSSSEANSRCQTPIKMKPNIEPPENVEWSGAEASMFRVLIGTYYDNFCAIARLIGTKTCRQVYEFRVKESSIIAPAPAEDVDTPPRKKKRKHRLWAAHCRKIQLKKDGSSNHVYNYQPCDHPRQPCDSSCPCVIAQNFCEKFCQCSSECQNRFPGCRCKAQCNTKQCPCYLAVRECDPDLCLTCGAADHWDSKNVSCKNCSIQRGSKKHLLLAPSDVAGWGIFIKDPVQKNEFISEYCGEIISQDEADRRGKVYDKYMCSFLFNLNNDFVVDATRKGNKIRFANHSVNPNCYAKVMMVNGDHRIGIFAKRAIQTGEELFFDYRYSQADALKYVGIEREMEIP

SMILES: Cc1cc(C)c(CNC(=O)c2c(C)cn(Cc3ccc(C(C(F)(F)F)(C(F)(F)F)C(F)(F)F)cc3)c2C)c(=O)[nH]1
- IC50 (K562): 58.7 µM

SMILES: Cc1cc(C)c(CNC(=O)c2cc(C)n(-c3cccc(N4CCOCC4)c3)c2C)c(=O)[nH]1
- IC50 [1]: 4.06 µM
- Ratio IC50 (Homo sapiens): 10

SMILES: Cc1sc(NC(=O)CCCCC(=O)Nc2sc(C)c(C)c2C(N)=O)c(C(N)=O)c1C
- IC50 [2]: 54.9 µM

SMILES: CCN(c1cc(-c2ccc(CN3CCN(C)CC3)cc2)cc(C(=O)NCc2c3c(c(C)[nH]c2=O)CCCC3)c1C)C1CCOCC1
- solubility ([3]; water, read-out: solubility): 3 µg/mL (≈ 4.79 µM)

SMILES: COc1cc(C)[nH]c(=O)c1CNC(=O)c1cccc2c1cc(C)n2[C@H](C)C1CCOCC1
- IC50 [4]: 0.0005 µM

SMILES: Cc1cc(C)c(CNC(=O)c2cc(-c3ccc(CN4CCOCC4)cc3)cc3c2cnn3C2CCCC2)c(=O)[nH]1
- Ki [5]: 0.024 µM

SMILES: CC[C@H](C)n1cc(C)c2c(C(=O)NCc3c(C)cc(C)[nH]c3=O)cc(-c3ccc(N4CCNCC4)nc3)cc21 [GSK2816126]
- IC50 (PC-3): 10 µM
- IC50 (SK-OV-3): 10.5 µM

SMILES: Cc1ccc(C(C2=C(O)CC(C)(C)CC2=O)C2C(=O)CC(C)(C)CC2=O)s1 (stereo unspecified)
- IC50 [2]: 63.9 µM

SMILES: Cc1cc(C)c(CNC(=O)c2cc(C)n(-c3cccc(N4CCCCC4)c3)c2C)c(=O)[nH]1
- IC50 [1]: 1.06 µM
- Ratio IC50 (Homo sapiens): 10

SMILES: CCN(c1cc(-c2ccc(CN3CCOCC3)cc2)cc(C(=O)NCc2c(C)cc(C)[nH]c2=O)c1C)C1CCOCC1 [TAZEMETOSTAT]
- solubility ([3]; buffer): 185.3 µg/mL (≈ 324 µM)
- IC50 (K562): 59.2 µM

SMILES: CC1=C(CC(=O)NCCc2c[nH]c3ccccc23)C(=O)OC2C(O)=C(O)C=CC12 (stereo unspecified)
- IC50 (PC-3): 5.39 µM
- IC50 (SK-OV-3): 7.86 µM
